Test results taken from patent US7351722B2, “Use of Mangafodipir for treating oxidative stress effects” (Universite Rene Descartes (Paris V), priority 2001, dated 2008).
Like-named read-outs stand apart in the source and are kept apart here.

Assays:
[1] = system: Hep 3B human hepatic cell line; details: 62.5, 125, 250 μg/ml, 1 h before X/XO, MTT after 12 h
Experimental: (§1) The cells were seeded in a 96-well culture plate, in a proportion of 5×10^4 cells per well, in a final volume of 50 μl.
One hundred μl of Mangafodipir solution at various concentrations (62.5, 125, 250 μg/ml) were deposited into each well (three wells per concentration tested).

[2] = system: acetaminophen-induced acute hepatic failure; details: mice given acetaminophen
Excerpt: In each of the groups, the livers of several animals were removed in order to perform a histological study.

[3] = system: Hep 3B human hepatic cell line; details: 62.5, 125, 250 μg/ml, 1 h before H2O2, MTT after 12 h
Experimental: The Hep 3B human hepatic cell line was also used for these experiments.
as §1
One hundred μl of Mangafodipir solution at various concentrations (62.5, 125, 250 μg/ml) were deposited into each well (three wells per concentration tested). After incubation for one hour, 50 μl of a solution of H2O2 at 4 mM were deposited into each well.

[4] = spectrophotometry at 340 nm for 5 minutes
Experimental: The glutathione reductase activity was assayed using the kit: “Glutathione reductase assay kit” marketed by the company Calbiochem. The reaction mixture is analyzed by spectrophotometry at 340 nm for 5 minutes.

[5] = 75.7 μg of Mangafodipir, 10 mM H2O2, pH 7.4
Experimental: The catalase activity was assayed according to the method described by AEBI [Methods Enzymol., 105, 121-126, (1984)]. The decrease in optical density (OD) at 240 nm of a solution of 10 mM H2O2 in phosphate buffer (50 mM of Na2HPO4/KH2PO4, 0.1 mM EDTA, pH 7.4) was measured in the presence of 75.7 μg of Mangafodipir or, by way of reference, in the presence of 1 unit of bovine catalase.

[6] = system: acetaminophen-induced acute hepatic failure; assay: Animal survival in acetaminophen-induced acute hepatic failure, comparison of Mangafodipir, MnTBAP and CuDIPS (Example 7); type: in vivo, mice; details: for number of surviving animals: 10 mg/kg bolus 2 h before 1000 mg/kg APAP, n = 12
Experimental: The Mangafodipir, the MnTBAP or the CuDIPS are administered in the form of a bolus, in the preventive capacity, 2 hours before the acetaminophen.
Animal survival is monitored for 24 hours after the administration of acetaminophen.

[7] = system: acetaminophen-induced acute hepatic failure; details: for survival rate: 24 hours after APAP 1000 mg/kg; for number of surviving animals: n = 12
Experimental: Intraperitoneal injection of acetaminophen into mice induces severe hepatotoxicity, the degree of which can be evaluated by animal survival and macroscopic and microscopic examination of the livers.
The Mangafodipir (marketed under the name […]™ by Nicomed-Amersham) is administered in the form of a bolus, intraperitoneally.
The acetaminophen (APAP), in solution at 100 mg/ml in PBS, at pH 7.4, is administered intraperitoneally.
In a first series of experiments, one group of mice was given a dose of 1000 mg/kg of acetaminophen; a second group was given a dose of 1000 mg/kg of acetaminophen, and a dose of 10 mg/kg of Mangafodipir administered either 2 h before the acetaminophen, or 6 h after; a control group was given Mangafodipir alone (10 mg/kg), or PBS alone.
Animal survival was monitored for 24 hours after the administration of acetaminophen.

[8] = system: acetaminophen-induced acute hepatic failure; details: 500 mg/kg APAP, ASAT after 12 hours
Experimental: In a second series of experiments, one group of mice was given a dose of 500 mg/kg of acetaminophen; a second group was given the same dose of acetaminophen, and a dose of 10 mg/kg of Mangafodipir administered 2 h before the acetaminophen; a third group of animals was given the same dose of acetaminophen, and a dose of 10 mg/kg of MnTBAP, and a fourth group of animals was given the same dose of acetaminophen, and a dose of 10 mg/kg of CuDIPS. The ASAT serum transaminases are assayed 12 hours after the administration of acetaminophen.

Manganese dipyridoxyl phosphate [Mangafodipir]
mortality of hepatic cells under superoxide anion-mediated oxidative stress [1]: prevents the mortality of hepatic cells
apoptotic lesions in liver, treated versus not treated [2]: considerably fewer apoptotic lesions
mortality of hepatic cells under hydrogen peroxide-mediated oxidative stress [3]: prevents the mortality of hepatic cells
glutathione reductase activity [4]: 19.9±1.75 mU glutathione reductase per milligram of Mangafodipir
catalase activity [5]: 2 U catalase per milligram of Mangafodipir
number of surviving animals ([6]; time 0 h): 12
number of surviving animals ([6]; time 6 h): 12
number of surviving animals ([6]; time 8 h): 12
number of surviving animals ([6]; time 9 h): 12
number of surviving animals ([6]; time 10 h): 11
number of surviving animals ([6]; time 11 h): 11
number of surviving animals ([6]; time 12 h): 11
number of surviving animals ([6]; time 13 h): 10
number of surviving animals ([6]; time 14 h): 10
number of surviving animals ([6]; time 15 h): 10
number of surviving animals ([6]; time 16 h): 9
number of surviving animals ([6]; time 17 h): 9
number of surviving animals ([6]; time 18 h): 9
number of surviving animals ([6]; time 20 h): 9
number of surviving animals ([6]; time 22 h): 8
number of surviving animals ([6]; time 24 h): 8
effect on survival rate ([6]; 10 mg/kg preventively, 1000 mg/kg APAP, 24 h): increases the survival rate in a manner at least equal to the MnTBAP
survival rate ([7]; Mangafodipir after acetaminophen (curative protocol)): greater than 41%
survival rate ([7]; Mangafodipir before acetaminophen (preventive protocol)): about 66%
number of surviving animals ([7]; Group III preventive, 10 mg/kg i.p. 2 h before 1000 mg/kg APAP, time 0 h): 12
number of surviving animals ([7]; Group III preventive, 10 mg/kg i.p. 2 h before 1000 mg/kg APAP, time 6 h): 12
number of surviving animals ([7]; Group III preventive, 10 mg/kg i.p. 2 h before 1000 mg/kg APAP, time 8 h): 12
number of surviving animals ([7]; Group III preventive, 10 mg/kg i.p. 2 h before 1000 mg/kg APAP, time 9 h): 12
number of surviving animals ([7]; Group III preventive, 10 mg/kg i.p. 2 h before 1000 mg/kg APAP, time 10 h): 11
number of surviving animals ([7]; Group III preventive, 10 mg/kg i.p. 2 h before 1000 mg/kg APAP, time 11 h): 11
number of surviving animals ([7]; Group III preventive, 10 mg/kg i.p. 2 h before 1000 mg/kg APAP, time 12 h): 11
number of surviving animals ([7]; Group III preventive, 10 mg/kg i.p. 2 h before 1000 mg/kg APAP, time 13 h): 10
number of surviving animals ([7]; Group III preventive, 10 mg/kg i.p. 2 h before 1000 mg/kg APAP, time 14 h): 10
number of surviving animals ([7]; Group III preventive, 10 mg/kg i.p. 2 h before 1000 mg/kg APAP, time 15 h): 10
number of surviving animals ([7]; Group III preventive, 10 mg/kg i.p. 2 h before 1000 mg/kg APAP, time 16 h): 9
number of surviving animals ([7]; Group III preventive, 10 mg/kg i.p. 2 h before 1000 mg/kg APAP, time 17 h): 9
number of surviving animals ([7]; Group III preventive, 10 mg/kg i.p. 2 h before 1000 mg/kg APAP, time 18 h): 9
number of surviving animals ([7]; Group III preventive, 10 mg/kg i.p. 2 h before 1000 mg/kg APAP, time 20 h): 9
number of surviving animals ([7]; Group III preventive, 10 mg/kg i.p. 2 h before 1000 mg/kg APAP, time 22 h): 8
number of surviving animals ([7]; Group III preventive, 10 mg/kg i.p. 2 h before 1000 mg/kg APAP, time 24 h): 8
number of surviving animals ([7]; Group IV curative, 10 mg/kg i.p. 6 h after 1000 mg/kg APAP, time 0 h): 12
number of surviving animals ([7]; Group IV curative, 10 mg/kg i.p. 6 h after 1000 mg/kg APAP, time 6 h): 12
number of surviving animals ([7]; Group IV curative, 10 mg/kg i.p. 6 h after 1000 mg/kg APAP, time 8 h): 11
number of surviving animals ([7]; Group IV curative, 10 mg/kg i.p. 6 h after 1000 mg/kg APAP, time 9 h): 11
number of surviving animals ([7]; Group IV curative, 10 mg/kg i.p. 6 h after 1000 mg/kg APAP, time 10 h): 10
number of surviving animals ([7]; Group IV curative, 10 mg/kg i.p. 6 h after 1000 mg/kg APAP, time 11 h): 9
number of surviving animals ([7]; Group IV curative, 10 mg/kg i.p. 6 h after 1000 mg/kg APAP, time 12 h): 9
number of surviving animals ([7]; Group IV curative, 10 mg/kg i.p. 6 h after 1000 mg/kg APAP, time 13 h): 8
number of surviving animals ([7]; Group IV curative, 10 mg/kg i.p. 6 h after 1000 mg/kg APAP, time 14 h): 8
number of surviving animals ([7]; Group IV curative, 10 mg/kg i.p. 6 h after 1000 mg/kg APAP, time 15 h): 8
number of surviving animals ([7]; Group IV curative, 10 mg/kg i.p. 6 h after 1000 mg/kg APAP, time 16 h): 7
number of surviving animals ([7]; Group IV curative, 10 mg/kg i.p. 6 h after 1000 mg/kg APAP, time 17 h): 7
number of surviving animals ([7]; Group IV curative, 10 mg/kg i.p. 6 h after 1000 mg/kg APAP, time 18 h): 7
number of surviving animals ([7]; Group IV curative, 10 mg/kg i.p. 6 h after 1000 mg/kg APAP, time 20 h): 6
number of surviving animals ([7]; Group IV curative, 10 mg/kg i.p. 6 h after 1000 mg/kg APAP, time 22 h): 6
number of surviving animals ([7]; Group IV curative, 10 mg/kg i.p. 6 h after 1000 mg/kg APAP, time 24 h): 5
transaminase activities, APAP500 alone relative to Mangafodipir pretreatment ([8]; 10 mg/kg 2 h before): 10 times
effect on transaminase activities ([8]; 10 mg/kg): decreases the transaminase activities
